Reference: patent US20240018123A1, “COMPOUND FOR INHIBITING OR DISINTEGRATING ANDROGEN RECEPTOR, AND PHARMACEUTICAL USE THEREOF” (KOREA RESEARCH INSTITUTE OF CHEMICAL TECHNOLOGY, priority 2020, published 2024)

What follows are compounds tested on VCaP cells (assay: Cytotoxicity assessment (Cell-titer-glo cell viability), VCaP). Conditions: read-out: VCaP (CC50); VCaP cells, 6 days of treatment, Cell-titer-glo, vs DMSO.

SMILES	CC50
CC1(C)C(NC(=O)c2ccc(-c3cnn(C4CCN(CC5CCN(C(=O)C6CN(c7ccc8nnn(C9CCC(=O)NC9=O)c(=O)c8c7)C6)CC5)CC4)c3)nc2)C(C)(C)C1Oc1ccc(C#N)c(Cl)c1 (stereo not shown) [Example 114, N-((1r,3r)-3-(3-chloro-4-cyanophenoxy)-2,2,4,4-tetramethylcyclobutyl)-6-(1-(1-((1-(1-(3-(2,6-dioxopiperidin-3-yl)-4-oxo-3,4-dihydrobenzo[d][1,2,3]triazin-6-yl)azetidine-3-carbonyl)piperidin-4-yl)methyl)piperidin-4-yl)-1H-pyrazol-4-yl)nicotinamide]	14 nM
CC1(C)C(NC(=O)c2ccc(-n3cc(CNC(=O)C4CN(c5ccc6nnn(C7CCC(=O)NC7=O)c(=O)c6c5)C4)nn3)cc2)C(C)(C)C1Oc1ccc(C#N)c(Cl)c1 (stereo not shown) [Example 151, N-((1-(4-(((1r,3r)-3-(3-chloro-4-cyanophenoxy)-2,2,4,4-tetramethylcyclobutyl)carbamoyl)phenyl)-1H-1,2,3-triazol-4-yl)methyl)-1-(3-(2,6-dioxopiperidin-3-yl)-4-oxo-3,4-dihydrobenzo[d][1,2,3]triazin-6-yl)azetidine-3-carboxamide]	25.6 nM
CC1(C)C(NC(=O)c2cnc(N3CCN(CC4CCN(C(=O)COc5ccc6nnn(C7CCC(=O)NC7=O)c(=O)c6c5)CC4)CC3)nc2)C(C)(C)C1Oc1ccc(C#N)c(Cl)c1 (stereo not shown) [Example 148, N-((1r,3r)-3-(3-chloro-4-cyanophenoxy)-2,2,4,4-tetramethylcyclobutyl)-2-(4-((1-(2-((3-(2,6-dioxopiperidin-3-yl)-4-oxo-3,4-dihydrobenzo[d][1,2,3]triazin-6-yl)oxy)acetyl)piperidin-4-yl)methyl)piperazin-1-yl)pyrimidine-5-carboxamide]	~10 nM
CC1(C)C(NC(=O)c2ccc(-n3cc(CCNC(=O)CNc4ccc5nnn(C6CCC(=O)NC6=O)c(=O)c5c4)nn3)cc2)C(C)(C)C1Oc1ccc(C#N)c(Cl)c1 (stereo not shown) [Example 156, N-((1r,3r)-3-(3-chloro-4-cyanophenoxy)-2,2,4,4-tetramethylcyclobutyl)-4-(4-(2-(2-((3-(2,6-dioxopiperidin-3-yl)-4-oxo-3,4-dihydrobenzo[d][1,2,3]triazin-6-yl)amino)acetamido)ethyl)-1H-1,2,3-triazol-1-yl)benzamide]	936 nM
CC1(C)[C@H](NC(=O)c2ccc(N3CCN(CC4CCN(CCNC(=O)C5CN(c6ccc7nnn(C8CCC(=O)NC8=O)c(=O)c7c6)C5)CC4)CC3)cc2)C(C)(C)[C@H]1Oc1ccc(C#N)c(Cl)c1 (stereo partly shown) [Example 69, N-(2-(4-((4-(4-(((1r,3r)-3-(3-chloro-4-cyanophenoxy)-2,2,4,4-tetramethylcyclobutyl)carbamoyl)phenyl)piperazin-1-yl)methyl)piperidin-1-yl)ethyl)-1-(3-(2,6-dioxopiperidin-3-yl)-4-oxo-3,4-dihydrobenzo[d][1,2,3]triazin-6-yl)azetidine-3-carboxamide]	345 nM
CC1(C)C(NC(=O)c2ccc(C#CC3CCN(CC4CCN(C(=O)C5CN(c6ccc7nnn(C8CCC(=O)NC8=O)c(=O)c7c6)C5)CC4)CC3)cc2)C(C)(C)C1Oc1ccc(C#N)c(Cl)c1 (stereo not shown) [Example 96, N-((1r,3r)-3-(3-chloro-4-cyanophenoxy)-2,2,4,4-tetramethylcyclobutyl)-4-((1-((1-(1-(3-(2,6-dioxopiperidin-3-yl)-4-oxo-3,4-dihydrobenzo[d][1,2,3]triazin-6-yl)azetidine-3-carbonyl)piperidin-4-yl)methyl)piperidin-4-yl)ethynyl)benzamide]	8.03 nM
CC1(C)[C@H](NC(=O)c2cnc(N3CCN(CC4CCN(c5ccc6nnn(C7CCC(=O)NC7=O)c(=O)c6c5)CC4)CC3)nc2)C(C)(C)[C@H]1Oc1ccc(C#N)c(Cl)c1 (stereo partly shown) [Example 100, N-((1r,3r)-3-(3-chloro-4-cyanophenoxy)-2,2,4,4-tetramethylcyclobutyl)-2-(4-((1-(3-(2,6-dioxopiperidin-3-yl)-4-oxo-3,4-dihydrobenzo[d][1,2,3]triazin-6-yl)piperidin-4-yl)methyl)piperazin-1-yl)pyrimidine-5-carboxamide]	2 nM
CC1(C)C(NC(=O)c2ccc(C#CC3CCN(C(=O)C4CCN(c5ccc6nnn(C7CCC(=O)NC7=O)c(=O)c6c5)CC4)CC3)cc2)C(C)(C)C1Oc1ccc(C#N)c(Cl)c1 (stereo not shown) [Example 141, N-((1r,3r)-3-(3-chloro-4-cyanophenoxy)-2,2,4,4-tetramethylcyclobutyl)-4-((1-(1-(3-(2,6-dioxopiperidin-3-yl)-4-oxo-3,4-dihydrobenzo[d][1,2,3]triazin-6-yl)piperidine-4-carbonyl)piperidin-4-yl)ethynyl)benzamide]	11.5 nM
CC1(C)[C@H](NC(=O)c2ccc(-n3cc(CN4CCN(C(=O)CNc5ccc6nnn(C7CCC(=O)NC7=O)c(=O)c6c5)CC4)nn3)cc2)C(C)(C)[C@H]1Oc1ccc(C#N)c(Cl)c1 (stereo partly shown) [Example 123, N-((1r,3r)-3-(3-chloro-4-cyanophenoxy)-2,2,4,4-tetramethylcyclobutyl)-4-(4-((4-((3-(2,6-dioxopiperidin-3-yl)-4-oxo-3,4-dihydrobenzo[d][1,2,3]triazin-6-yl)glycyl)piperazin-1-yl)methyl)-1H-1,2,3-triazol-1-yl)benzamide]	55 nM
CC1(C)[C@H](NC(=O)c2cnc(N3CCN(CC4CCN(C(=O)C5CCN(c6ccc7nnn(C8CCC(=O)NC8=O)c(=O)c7c6)CC5)CC4)CC3)nc2)C(C)(C)[C@H]1Oc1ccc(C#N)c(Cl)c1 (stereo partly shown) [Example 145, N-((1r,3r)-3-(3-chloro-4-cyanophenoxy)-2,2,4,4-tetramethylcyclobutyl)-2-(4-((1-(1-(3-(2,6-dioxopiperidin-3-yl)-4-oxo-3,4-dihydrobenzo[d][1,2,3]triazin-6-yl)piperidine-4-carbonyl)piperidin-4-yl)methyl)piperazin-1-yl)pyrimidine-5-carboxamide]	~10 nM
CC1(C)C(NC(=O)c2ccc(C#CCC3CCN(CC4CCN(C(=O)CNc5ccc6nnn(C7CCC(=O)NC7=O)c(=O)c6c5)CC4)CC3)cc2)C(C)(C)C1Oc1ccc(C#N)c(Cl)c1 (stereo not shown) [Example 118, N-((1r,3r)-3-(3-chloro-4-cyanophenoxy)-2,2,4,4-tetramethylcyclobutyl)-4-(3-(1-((1-((3-(2,6-dioxopiperidin-3-yl)-4-oxo-3,4-dihydrobenzo[d][1,2,3]triazin-6-yl)glycyl)piperidin-4-yl)methyl)piperidin-4-yl)prop-1-yn-1-yl)benzamide]	17 nM
CC1(C)C(NC(=O)c2ccc(N3CC4CN(CC5CCN(C(=O)CNc6ccc7nnn(C8CCC(=O)NC8=O)c(=O)c7c6)CC5)CC4C3)cc2)C(C)(C)C1Oc1ccc(C#N)c(Cl)c1 (stereo not shown) [Example 138, N-((1r,3r)-3-(3-chloro-4-cyanophenoxy)-2,2,4,4-tetramethylcyclobutyl)-4-(5-((1-((3-(2,6-dioxopiperidin-3-yl)-4-oxo-3,4-dihydrobenzo[d][1,2,3]triazin-6-yl)glycyl)piperidin-4-yl)methyl)hexahydropyrrolo[3,4-c]pyrrol-2(1H)-yl)benzamide]	63.7 nM
CC1(C)C(NC(=O)c2ccc(C#CC3CCN(CC4CCN(C(=O)CNc5ccc6nnn(C7CCC(=O)NC7=O)c(=O)c6c5)CC4)CC3)nc2)C(C)(C)C1Oc1ccc(C#N)c(Cl)c1 (stereo not shown) [Example 132, N-((1r,3r)-3-(3-chloro-4-cyanophenoxy)-2,2,4,4-tetramethylcyclobutyl)-6-((1-((1-((3-(2,6-dioxopiperidin-3-yl)-4-oxo-3,4-dihydrobenzo[d][1,2,3]triazin-6-yl)glycyl)piperidin-4-yl)methyl)piperidin-4-yl)ethynyl)nicotinamide]	15 nM
